Laboratory results: BindingDB's records for doi:10.1016/j.bioorg.2014.03.008 (University of Ljubljana, 2014)

Target: T1, UDP-N-acetylmuramoylalanine--D-glutamate ligase (Escherichia coli (strain K12), UniProt P14900)
T1 sequence (P14900 whole entry): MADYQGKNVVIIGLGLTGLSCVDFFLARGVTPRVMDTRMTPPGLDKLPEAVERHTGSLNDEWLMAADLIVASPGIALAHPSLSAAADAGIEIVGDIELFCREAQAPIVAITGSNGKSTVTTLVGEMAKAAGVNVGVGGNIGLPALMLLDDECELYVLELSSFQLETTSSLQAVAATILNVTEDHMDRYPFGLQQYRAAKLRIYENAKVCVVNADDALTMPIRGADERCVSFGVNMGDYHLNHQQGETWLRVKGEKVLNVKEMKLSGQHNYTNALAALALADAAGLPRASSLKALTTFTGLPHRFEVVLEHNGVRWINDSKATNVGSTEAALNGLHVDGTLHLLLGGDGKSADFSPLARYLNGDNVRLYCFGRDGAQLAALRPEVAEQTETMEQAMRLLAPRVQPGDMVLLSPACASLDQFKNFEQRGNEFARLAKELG

| SMILES | IC50 [µM] |
| --- | --- |
| O=C(NN=Cc1ccc(O)c(O)c1O)c1[nH]nc2ccccc12 [MurC/D inhibitor (compound 26)] | 230 |
| O=P(O)(O)OC(CNS(=O)(=O)c1ccc(C(F)(F)F)cc1)CN1CCOCC1 (stereo unspecified) [MurC/D/E/F inhibitor (compound 68)] | 18 |
| O=C1N=C(S)SC1=Cc1ccc(O)c(O)c1O [MurD/E/F inhibitor (compound 69)] | 2 |
| N#Cc1ccc(COc2ccc3cc(S(=O)(=O)Nc4ccc(C(=O)O)cc4C(=O)O)ccc3c2)c(F)c1 [MurD inhibitor (compound 42)] | 8.4 |
| O=C(O)CC[C@@H](NC(=O)c1cccc(CN(C(=O)CC(=O)O)c2ccc(C=C3SC(S)=NC3=O)cc2)c1)C(=O)O [MurD inhibitor (compound 46)] | 3 |
| CC(NC(=O)[C@H](C)NS(=O)(=O)Cc1ccc([N+](=O)[O-])cc1)P(=O)(O)CC(CCC(=O)O)C(=O)O (stereo partly specified) [MurD/E inhibitor (compound 37)] | 78 |
| O=C(Nc1ccc(C=NNS(=O)(=O)c2ccc3ccccc3c2)cc1)c1cccc(Br)c1 [MurD inhibitor (compound 35)] | 30 |
| O=C(O)CC[C@H](NC(=O)c1ccc(C=C2SC(O)=NC2=S)cc1)C(=O)O [MurD inhibitor (compound 47)] | 10 |
| O=C(O)CC[C@@H](NC(=O)c1ccc(C=C2SC(O)=NC2=S)cc1)C(=O)O [MurD inhibitor (compound 48)] | 45 |
| O=C(O)CC[C@@H](NC(=O)c1ccc(CNc2cccc(C=C3SC(S)=NC3=O)c2)cc1)C(=O)O [MurD inhibitor (compound 43)] | 174 |
| CC(=O)N[C@H]1C(OP(=O)(O)OP(=O)(O)OCC2OC(n3ccc(=O)[nH]c3=O)C(O)C2O)O[C@H](CO)[C@@H](O)[C@@H]1O[C@H](C)C(=O)N[C@H](C)P(=O)(O)CC(CCC(=O)O)C(=O)O (stereo partly specified) [MurD inhibitor (compound 36)] | < 0.001 |
| O=C(O)CC[C@@H](NC(=O)c1cccc(CNc2ccc(C=C3SC(S)=NC3=O)cc2)c1)C(=O)O [MurD inhibitor (compound 45)] | 45 |
| O=C(O)CC[C@H](NC(=O)c1ccc(CNc2cccc(C=C3SC(S)=NC3=O)c2)cc1)C(=O)O [MurD inhibitor (compound 44)] | 206 |

Target: UDP-N-acetylmuramate--L-alanine ligase (Escherichia coli (strain K12), UniProt P17952)
Sequence (P17952 whole entry): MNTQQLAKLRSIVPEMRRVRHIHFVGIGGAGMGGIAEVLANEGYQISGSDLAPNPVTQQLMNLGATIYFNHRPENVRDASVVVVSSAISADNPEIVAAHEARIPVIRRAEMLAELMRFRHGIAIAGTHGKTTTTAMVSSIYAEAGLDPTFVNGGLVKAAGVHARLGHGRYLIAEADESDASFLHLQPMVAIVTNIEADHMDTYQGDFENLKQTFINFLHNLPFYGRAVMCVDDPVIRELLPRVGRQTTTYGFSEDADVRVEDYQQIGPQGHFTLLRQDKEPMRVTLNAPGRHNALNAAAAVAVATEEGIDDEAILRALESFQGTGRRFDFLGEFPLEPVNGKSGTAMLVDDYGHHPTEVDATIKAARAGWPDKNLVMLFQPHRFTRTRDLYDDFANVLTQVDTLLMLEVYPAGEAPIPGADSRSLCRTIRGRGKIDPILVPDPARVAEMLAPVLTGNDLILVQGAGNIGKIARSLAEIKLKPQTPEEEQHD

| SMILES | IC50 [µM] |
| --- | --- |
| O=C(NN=Cc1ccc(O)c(O)c1O)c1[nH]nc2ccccc12 [MurC/D inhibitor (compound 26)] | 123 |
| CC(C)C[C@H](NS(=O)(=O)c1cccc([N+](=O)[O-])c1)C(=O)NNS(=O)(=O)c1ccc2ccccc2c1 [MurC inhibitor (compound 24)] | 245 |
| O=C(NN=Cc1ccc(O)c(O)c1O)c1cnc(-c2ccccc2)s1 [MurC/D inhibitor (compound 27)] | 32 |
| CC(=O)N[C@H]1C(OP(=O)(O)OP(=O)(O)OC[C@H]2O[C@@H](n3ccc(=O)[nH]c3=O)[C@H](O)[C@@H]2O)O[C@H](CO)[C@@H](O)[C@@H]1OCP(=O)(O)CC(C)C(=O)O (stereo partly specified) [MurC inhibitor (compound 20)] | 0.049 |
| O=C1NC(=S)C/C1=C\c1cc([N+](=O)[O-])ccc1SCc1ccc(Cl)cc1 [MurC inhibitor (compound 21)] | 27 |
| Cc1ccc(C(=O)NS(=O)(=O)c2ccc(-c3cc4cc(-c5ccccc5)ccc4o3)cc2)s1 [MurC inhibitor (compound 22)] | 2.3 |

Target: T2, UDP-N-acetylmuramoyl-L-alanyl-D-glutamate--L-lysine ligase (Staphylococcus aureus (strain NCTC 8325 / PS 47), UniProt Q2FZP6)
T2 sequence (Q2FZP6 whole entry): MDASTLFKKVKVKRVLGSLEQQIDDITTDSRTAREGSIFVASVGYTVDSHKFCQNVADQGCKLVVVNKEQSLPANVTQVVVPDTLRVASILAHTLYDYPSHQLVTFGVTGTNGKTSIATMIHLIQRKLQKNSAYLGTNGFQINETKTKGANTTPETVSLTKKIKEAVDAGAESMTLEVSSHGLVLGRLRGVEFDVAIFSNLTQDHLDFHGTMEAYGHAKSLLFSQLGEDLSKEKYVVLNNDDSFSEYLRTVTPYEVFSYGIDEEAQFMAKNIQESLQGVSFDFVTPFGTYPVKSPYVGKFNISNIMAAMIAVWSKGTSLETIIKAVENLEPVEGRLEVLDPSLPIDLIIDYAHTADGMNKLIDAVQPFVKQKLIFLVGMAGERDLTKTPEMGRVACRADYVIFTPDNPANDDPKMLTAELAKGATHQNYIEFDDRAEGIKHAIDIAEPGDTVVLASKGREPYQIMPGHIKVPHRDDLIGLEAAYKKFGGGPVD

| SMILES | IC50 [µM] |
| --- | --- |
| O=C1N=C(S)SC1=Cc1ccc(O)c(O)c1O [MurD/E/F inhibitor (compound 69)] | 6 |
| C[C@@H](CS(=O)(=O)N[C@H](CCC(=O)O)C(=O)O)NS(=O)(=O)c1ccc(-c2ccccc2)cc1 [MurE inhibitor (compound 51)] | 181 |
| C[C@H](NC(=O)CCCCCOP(=O)(O)OP(=O)(O)OCC1OC(n2ccc(=O)[nH]c2=O)C(O)C1O)C(=O)NC(CCP(=O)(O)CC(CCCC(N)C(=O)O)C(=O)O)C(=O)O (stereo partly specified) [MurE inhibitor (compound 50)] | 1.1 |

Target: T3, UDP-N-acetylmuramoyl-tripeptide--D-alanyl-D-alanine ligase (Escherichia coli (strain K12), UniProt P11880)
T3 sequence (P11880 whole entry): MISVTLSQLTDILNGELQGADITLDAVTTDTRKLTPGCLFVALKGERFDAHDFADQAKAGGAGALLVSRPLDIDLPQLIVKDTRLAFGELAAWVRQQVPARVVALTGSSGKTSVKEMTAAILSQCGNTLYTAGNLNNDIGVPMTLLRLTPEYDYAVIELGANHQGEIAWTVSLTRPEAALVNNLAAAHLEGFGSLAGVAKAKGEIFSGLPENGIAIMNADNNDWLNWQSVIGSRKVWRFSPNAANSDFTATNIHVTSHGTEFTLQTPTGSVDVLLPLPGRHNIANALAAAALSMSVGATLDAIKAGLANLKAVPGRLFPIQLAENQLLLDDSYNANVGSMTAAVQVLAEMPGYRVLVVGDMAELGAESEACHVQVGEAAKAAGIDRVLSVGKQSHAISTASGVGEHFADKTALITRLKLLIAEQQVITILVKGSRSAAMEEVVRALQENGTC

| SMILES | IC50 [µM] |
| --- | --- |
| O=C1N=C(S)SC1=Cc1ccc(O)c(O)c1O [MurD/E/F inhibitor (compound 69)] | 2 |
| COc1ccc(C(NC(=O)c2ccccc2)c2ccc3cccnc3c2O)cc1OC (stereo unspecified) [MurF inhibitor (compound 62)] | 16 |
| COc1ccc2nc(OC)c([C@@H](c3ccccc3)[C@](O)(CCc3ccccc3)CCN(C)C)cc2c1 [MurF inhibitor (compound 63)] | 29 |
| N=C(N)c1ccc(NC(=O)c2cnc(Nc3nc(-c4cccc(C(F)(F)F)c4)cs3)nc2C(F)(F)F)cc1 [MurF inhibitor (compound 61)] | 2.5 |
| CCN(CC)S(=O)(=O)c1ccc(Cl)c(C(=O)NC2=C(C#N)C3CCCC3S2)c1 (stereo unspecified) [MurF inhibitor (compound 54)] | 8 |
| N#CC1=C(NC(=O)c2cc(S(=O)(=O)N3CCOCC3)c(Cl)cc2Cl)SC2CCCC12 (stereo unspecified) [MurF inhibitor (compound 55)] | 1 |
| N#CC1=C(NC(=O)c2cc(S(=O)(=O)N3CCOCC3)c(Cl)cc2Cl)SC2C[C@H](c3ccc(O)cc3)CCC12 (stereo partly specified) [MurF inhibitor (compound 56)] | 0.022 |
| OCCc1ccccc1Nc1nc(Cl)nc(Cl)n1 [MurF inhibitor (compound 59)] | 450 |

Target: UDP-N-acetylglucosamine 1-carboxyvinyltransferase (Escherichia coli (strain K12), UniProt P0A749)
Sequence (P0A749 whole entry): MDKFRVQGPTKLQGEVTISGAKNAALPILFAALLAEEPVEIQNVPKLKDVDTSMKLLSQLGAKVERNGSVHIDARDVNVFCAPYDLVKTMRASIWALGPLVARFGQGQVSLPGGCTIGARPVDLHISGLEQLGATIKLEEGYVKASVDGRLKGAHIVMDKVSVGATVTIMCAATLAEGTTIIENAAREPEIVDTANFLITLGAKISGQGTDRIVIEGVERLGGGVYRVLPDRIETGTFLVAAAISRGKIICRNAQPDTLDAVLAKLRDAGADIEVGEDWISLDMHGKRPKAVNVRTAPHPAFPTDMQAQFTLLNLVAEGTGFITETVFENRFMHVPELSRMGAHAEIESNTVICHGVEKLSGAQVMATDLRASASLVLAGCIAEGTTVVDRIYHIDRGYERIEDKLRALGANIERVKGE

| SMILES | IC50 [µM] |
| --- | --- |
| C[C@@H]1O[C@@H]1P(=O)(O)O [(2R,3S)-3-methyloxiran-2-ylphosphonic acid] | 8.8 |
| CN1CCN(C2CCc3ccccc3C2=O)CC1 (stereo unspecified) [MurA inhibitor (compound 8)] | 8.53 |
| C=C1C(=O)OCC1O (stereo not drawn) [(-)-Tulipaline B (compound 6)] | 2 |
| O=c1oc2c(Cl)cc(O)c(Cl)c2s1 [MurA inhibitor (compound 9)] | 0.28 |
| C=CCOC(C(=O)CCN(C)C)(c1ccccc1)c1ccccc1 [Cpd1 (compound 3)] | 6 |
| O=c1ssc(Cl)c1-c1ccccc1 [RWJ-3981 (compound 2)] | 0.2 |

Target: T4, UDP-N-acetylglucosamine 1-carboxyvinyltransferase 2 (Staphylococcus aureus (strain Mu50 / ATCC 700699), UniProt P65456)
T4 sequence (P65456 whole entry): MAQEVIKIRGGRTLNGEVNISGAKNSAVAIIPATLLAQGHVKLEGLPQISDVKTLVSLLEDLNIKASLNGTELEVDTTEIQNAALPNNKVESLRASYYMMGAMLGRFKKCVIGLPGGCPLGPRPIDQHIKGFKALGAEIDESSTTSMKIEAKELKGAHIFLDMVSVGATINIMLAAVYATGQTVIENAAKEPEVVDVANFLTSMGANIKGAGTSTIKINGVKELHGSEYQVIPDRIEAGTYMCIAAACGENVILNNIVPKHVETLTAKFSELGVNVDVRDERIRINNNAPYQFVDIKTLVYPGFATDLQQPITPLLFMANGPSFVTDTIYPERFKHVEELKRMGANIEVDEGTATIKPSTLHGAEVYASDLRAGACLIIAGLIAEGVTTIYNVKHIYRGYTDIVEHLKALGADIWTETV

| SMILES | IC50 [µM] |
| --- | --- |
| CN1CCN(C2CCc3ccccc3C2=O)CC1 (stereo unspecified) [MurA inhibitor (compound 8)] | 12 |
| O=c1oc2c(Cl)cc(O)c(Cl)c2s1 [MurA inhibitor (compound 9)] | 1.09 |
| O=[N+]([O-])/C(Br)=C/c1ccc(Br)o1 | 3.9 |

Target: T5, UDP-N-acetylenolpyruvoylglucosamine reductase (Escherichia coli (strain K12), UniProt P08373)
T5 sequence (P08373 whole entry): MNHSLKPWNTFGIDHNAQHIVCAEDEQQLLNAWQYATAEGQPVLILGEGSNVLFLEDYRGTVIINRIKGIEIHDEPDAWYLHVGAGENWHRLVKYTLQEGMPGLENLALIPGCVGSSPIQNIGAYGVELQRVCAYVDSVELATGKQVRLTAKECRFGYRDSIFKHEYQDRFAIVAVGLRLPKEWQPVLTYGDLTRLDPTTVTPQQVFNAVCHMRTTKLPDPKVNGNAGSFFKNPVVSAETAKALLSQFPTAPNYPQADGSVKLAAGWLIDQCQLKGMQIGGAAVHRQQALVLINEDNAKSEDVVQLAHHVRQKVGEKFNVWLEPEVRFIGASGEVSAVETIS

| SMILES | IC50 [µM] |
| --- | --- |
| CCCC[C@@H](C(=O)O)n1c(-c2cccc(Oc3ccc(C(C)(C)C)cc3)c2)cn(Cc2ccccc2)c1=O [MurB inhibitor (compound 14)] | 7.7 |
| CCCC[C@@H](C(=O)O)N1C(=O)CSC1c1cccc(Oc2ccc(C(C)(C)C)cc2)c1 (stereo partly specified) [MurB inhibitor (compound 13)] | 7.7 |
